Data from US20130261077A1 (priority 2012, published 2013).

Target: T1, FimH-CRD (Escherichia coli, UniProt P08191)
T1 construct: The first 177 amino acids of the FimH protein; thrombin tag (printed as 'fusion protein with thrombin') (cleaved yes); made in house; host or cells: bacteria (pET21b plasmid)
Experiment: Competitive binding assay by fluorescence polarization, assay 2 (compounds prepared by robotics, plates frozen and thawed)
Description: The first 177 amino acids of the FimH protein were expressed as a fusion protein with thrombin in a pET21b plasmid in bacteria. This FimH protein sequence contains the carbohydrate recognition domain (CRD) and shall be termed FimH-CRD. Following bacterial expression of the protein, the FimH-CRD protein was purified to homogeneity and the thrombin tag removed by protease cleavage. A competitive binding assay by fluorescence polarization was performed using 5 nM of the Alexa 647 mannoside probe and 60 nM of the FimH-CRD. The samples are assayed in a low volume 384 well microtiter plate in a final volume of 20 μl. The final assay buffer conditions are the following, 50 mM Tris-Cl, ph 7.0, 100 mM NaCl, 1 mM EDTA, 5 mM β-mercaptoethanol, 0.05% BSA and 2.5% DMSO. Two assays are performed for FimH, termed assay 1 or assay 2. The assay conditions are the same for both assays except the following: assay 1 has compounds prepared by manual dilution in a serial dilution factor with 12-point dose response while assay 2 has compounds prepared by a robotics system also through a serial dilution factor (12 point dose response) and initially prepared in duplicate in 384 well-Corning polypropylene round bottom plates. The assay 2 plates have compound which is then frozen and must be thawed prior to use. Initially the Alexa 647 probe and the FimH-CRD are added to the assay buffer and then 0.5 μl of test compound (assay 1 or 2) between 0.4 nM to 75 μM final concentration are added (12 point titration with 3-fold serial dilution). Control wells for the Alexa 647 probe are prepared with the same conditions except for the addition of the FimH-CRD protein. Plates are then incubated for 5 hrs at room temperature in the dark and under humid conditions to prevent drying. Plates are read using the SpectraMax Paradigm multi-mode plate reader and the appropriate fluorescent polarization detection cartridge (Alexa-647).
Alexa 647 mannoside probe is prepared using the similar procedure reported for FAM mannoside (Han, Z. et. al., 2010, J. Med. Chem., 53, 4779) and is described in the scheme below.
To a blue colored stirred solution of (2S,3S,4S,5S,6R)-2-(4-aminobutoxy)-6-(hydroxymethyl)tetrahydropyran-3,4,5-triol (2.21 mg, 0.009 mmol) and the (2E)-2-[(2E,4E)-5-[3,3-dimethyl-5-sulfonato-1-(3-sulfonatopropyl)indol-1-ium-2-yl]penta-2,4-dienylidene]-3-[6-(2,5-dioxopyrrolidin-1-yl)oxy-6-oxo-hexyl]-3-methyl-1-(3-sulfonatopropyl)indoline-5-sulfonate (Potassium Ion (3)) (4.9 mg, 0.0044 mmol) in DMF (44 μL) is added Et3N (5.4 mg, 7.0 μL, 0.053 mmol) at RT. The solution is stirred at room temperature over night, concentrated, dissolved in water and purified on 12 g C-18 silica gel cartridge on Isolera system using acetonitrile in water (0 to 40%, 10 CV) and followed by lyophilization to afford Alexa 647 mannoside probe (3.3 mg, 34%) as deep blue solid.
The Kd values of the compounds are determined from dose response curves using twelve concentrations per compound in duplicate. Curves are fitted to data points using Fluorescence Polarization competitive displacement analysis, and Kds are interpolated from the resulting curves using GraphPad Prism software, version […] (GraphPad software Inc., San Diego, Calif., USA).

T1 sequence (P08191 22-177): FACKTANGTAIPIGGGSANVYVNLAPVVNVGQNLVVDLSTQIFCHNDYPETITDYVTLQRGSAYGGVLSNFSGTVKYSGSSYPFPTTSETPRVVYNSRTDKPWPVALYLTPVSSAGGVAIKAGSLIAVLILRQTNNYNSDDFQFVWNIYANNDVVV

Structure (SMILES) | Kd
Cn1nccc1-c1ccc(-c2cccc([C@H]3O[C@H](CO)[C@@H](O)[C@H](O)[C@@H]3O)c2)cc1 [Compound 124, (2R,3S,4R,5S,6R)-2-(hydroxymethyl)-6-[3-[4-(2-methylpyrazol-3-yl)phenyl]phenyl]tetrahydropyran-3,4,5-triol] | 16.2 ± 2 nM
Cc1nnc(-c2ccc(-c3cccc([C@H]4O[C@H](CO)[C@@H](O)[C@H](O)[C@@H]4O)c3)c(C)c2)o1 [Compound 125, (2R,3S,4R,5S,6R)-2-(hydroxymethyl)-6-[3-[2-methyl-4-(5-methyl-1,3,4-oxadiazol-2-yl)phenyl]phenyl]tetrahydropyran-3,4,5-triol] | 13.9 ± 2.6 nM
COc1cc(-c2cccc([C@H]3O[C@H](CO)[C@@H](O)[C@H](O)[C@@H]3O)c2)ccc1-c1nnc(C)o1 [Compound 127, (2R,3S,4R,5S,6R)-2-(hydroxymethyl)-6-[3-[3-methoxy-4-(5-methyl-1,3,4-oxadiazol-2-yl)phenyl]phenyl]tetrahydropyran-3,4,5-triol] | 17.4 ± 4.8 nM
COc1cc(-c2nnc(C)o2)ccc1-c1cccc([C@H]2O[C@H](CO)[C@@H](O)[C@H](O)[C@@H]2O)c1 [Compound 128, (2R,3S,4R,5S,6R)-2-(hydroxymethyl)-6-[3-[2-methoxy-4-(5-methyl-1,3,4-oxadiazol-2-yl)phenyl]phenyl]tetrahydropyran-3,4,5-triol] | 74.7 ± 60.4 nM
Cc1nnc(-c2ccc(-c3ccc([C@H]4O[C@H](CO)[C@@H](O)[C@H](O)[C@@H]4O)cc3)cc2)o1 [Compound 129, (2R,3S,4R,5S,6R)-2-(hydroxymethyl)-6-[4-[4-(5-methyl-1,3,4-oxadiazol-2-yl)phenyl]phenyl]tetrahydropyran-3,4,5-triol] | 22.9 ± 5.4 nM
CNC(=O)c1cc(/C=C\c2cccc([C@H]3O[C@H](CO)[C@@H](O)[C@H](O)[C@@H]3O)c2)cc(C(=O)NC)c1 [Compound 135] | 22.3 ± 9.8 nM
CNC(=O)c1cc(/C=C/c2cccc([C@H]3O[C@H](CO)[C@@H](O)[C@H](O)[C@@H]3O)c2)cc(C(=O)NC)c1 [Compound 136] | 19.2 ± 3.6 nM
OC[C@H]1O[C@H](c2cccc(/C=C\c3cc(Cl)cc(Cl)c3)c2)[C@@H](O)[C@@H](O)[C@@H]1O [Compound 137, (2R,3S,4R,5S,6R)-2-[3-[(Z)-2-(3,5-dichlorophenyl)vinyl]phenyl]-6-(hydroxymethyl)tetrahydropyran-3,4,5-triol] | 29.9 ± 15.2 nM
OC[C@H]1O[C@H](c2cccc(/C=C/c3cc(Cl)cc(Cl)c3)c2)[C@@H](O)[C@@H](O)[C@@H]1O [Compound 138, (2R,3S,4R,5S,6R)-2-[3-[(E)-2-(3,5-dichlorophenyl)vinyl]phenyl]-6-(hydroxymethyl)tetrahydropyran-3,4,5-triol] | 32.9 ± 6.3 nM
OC[C@H]1O[C@H](c2cccc(/C=C/c3ccccc3)c2)[C@@H](O)[C@@H](O)[C@@H]1O [Compound 140, (2R,3S,4R,5S,6R)-2-(hydroxymethyl)-6-[3-[(E)-styryl]phenyl]tetrahydropyran-3,4,5-triol] | 15.3 ± 3.5 nM
CNC(=O)c1ccc(-c2cccc([C@H]3O[C@H](CO)[C@@H](O)[C@H](O)[C@@H]3O)c2)cc1-n1cncn1 [Compound 141, N-methyl-2-(1,2,4-triazol-1-yl)-4-[3-[(2R,3S,4R,5S,6R)-3,4,5-trihydroxy-6-(hydroxymethyl)tetrahydropyran-2-yl]phenyl]benzamide] | 56.2 ± 20 nM
COCc1cc(-c2cccc([C@H]3O[C@H](CO)[C@@H](O)[C@H](O)[C@@H]3O)c2)ccc1-c1nnc(C)o1 [Compound 142, (2R,3S,4R,5S,6R)-2-(hydroxymethyl)-6-[3-[3-(methoxymethyl)-4-(5-methyl-1,3,4-oxadiazol-2-yl)phenyl]phenyl]tetrahydropyran-3,4,5-triol] | 14.8 ± 5.9 nM
Cc1nnc(-c2ccc(-c3cccc([C@H]4O[C@H](CO)[C@@H](O)[C@H](O)[C@@H]4O)c3)cc2O)o1 [Compound 143, (2R,3S,4R,5S,6R)-2-(hydroxymethyl)-6-[3-[3-hydroxy-4-(5-methyl-1,3,4-oxadiazol-2-yl)phenyl]phenyl]tetrahydropyran-3,4,5-triol] | 11.2 ± 1 nM
COC(=O)c1ccc2nc(-c3cccc([C@H]4O[C@H](CO)[C@@H](O)[C@H](O)[C@@H]4O)c3)ccc2c1 [Compound 144, Methyl 2-[3-[(2R,3S,4R,5S,6R)-3,4,5-trihydroxy-6-(hydroxymethyl)tetrahydropyran-2-yl]phenyl]quinoline-6-carboxylate] | 18.3 ± 7.5 nM
CNC(=O)c1ccc2nc(-c3cccc([C@H]4O[C@H](CO)[C@@H](O)[C@H](O)[C@@H]4O)c3)ccc2c1 [Compound 145, N-Methyl 2-[3-[(2R,3S,4R,5S,6R)-3,4,5-trihydroxy-6-(hydroxymethyl)tetrahydropyran-2-yl]phenyl]quinoline-6-carboxylate] | 22.4 ± 4.7 nM
OCc1nc2cc(-c3cccc([C@H]4O[C@H](CO)[C@@H](O)[C@H](O)[C@@H]4O)c3)ccc2[nH]1 [Compound 146, (2R,3S,4R,5S,6R)-2-(Hydroxymethyl)-6-[3-[2-(hydroxymethyl)-1H-benzimidazol-5-yl]phenyl]tetrahydropyran-3,4,5-triol] | 27.8 ± 10.8 nM
OC[C@H]1O[C@H](c2cccc(-c3ccc4[nH]c(O)nc4c3)c2)[C@@H](O)[C@@H](O)[C@@H]1O [Compound 147, (2R,3S,4R,5S,6R)-2-[3-(2-Hydroxy-1H-benzimidazol-5-yl)phenyl]-6-(hydroxymethyl)tetrahydropyran-3,4,5-triol] | 10.9 ± 4 nM
OC[C@H]1O[C@H](c2cccc(-c3ccc4[nH]c(C(F)(F)F)nc4c3)c2)[C@@H](O)[C@@H](O)[C@@H]1O [Compound 148, (2R,3S,4R,5S,6R)-2-(Hydroxymethyl)-6-[3-[2-(trifluoromethyl)-1H-benzimidazol-5-yl]phenyl]tetrahydropyran-3,4,5-triol] | 25.1 ± 12 nM
CCCCn1cnc2ccc(-c3cccc([C@H]4O[C@H](CO)[C@@H](O)[C@H](O)[C@@H]4O)c3)cc21 [Compound 149, (2R,3S,4R,5S,6R)-2-[3-(3-Butylbenzimidazol-5-yl)phenyl]-6-(hydroxymethyl)tetrahydropyran-3,4,5-triol] | 19.8 ± 11.2 nM
Cc1nnc(-c2ccc(-c3cccc([C@H]4O[C@H](CO)[C@@H](O)[C@H](O)[C@@H]4O)c3)cc2F)o1 [Compound 150, (2R,3S,4R,5S,6R)-2-[3-[3-Fluoro-4-(5-methyl-1,3,4-oxadiazol-2-yl)phenyl]phenyl]-6-(hydroxymethyl)tetrahydropyran-3,4,5-triol] | 25.9 ± 5.1 nM
COC(=O)c1nc2cc(-c3cccc([C@H]4O[C@H](CO)[C@@H](O)[C@H](O)[C@@H]4O)c3)ccc2[nH]1 [Compound 151, Methyl 5-[3-[(2R,3S,4R,5S,6R)-3,4,5-trihydroxy-6-(hydroxymethyl)tetrahydropyran-2-yl]phenyl]-1H-benzimidazole-2-carboxylate] | 37.8 ± 13.4 nM
CNC(=O)Cn1cnc2cc(-c3cccc([C@H]4O[C@H](CO)[C@@H](O)[C@H](O)[C@@H]4O)c3)ccc21 [Compound 152, N-Methyl-2-[5-[3-[(2R,3S,4R,5S,6R)-3,4,5-trihydroxy-6-(hydroxymethyl)tetrahydropyran-2-yl]phenyl]benzimidazol-1-yl]acetamide] | 43.8 ± 1.1 nM
O=C(O)c1cc(C(=O)O)cc(-c2cccc([C@H]3O[C@H](CO)[C@@H](O)[C@H](O)[C@@H]3O)c2)c1 [Compound 153, 5-[3-[(2R,3S,4R,5S,6R)-3,4,5-trihydroxy-6-(hydroxymethyl)tetrahydropyran-2-yl]phenyl]benzene-1,3-dicarboxylic acid] | 88.7 ± 41.2 nM
CNC(=O)c1cccc(-c2ccc3cc([C@H]4O[C@H](CO)[C@@H](O)[C@H](O)[C@@H]4O)ccc3c2)c1 [Compound 154, N-methyl-3-[6-[(2R,3S,4R,5S,6R)-3,4,5-trihydroxy-6-(hydroxymethyl)tetrahydropyran-2-yl]-2-naphthyl]benzamide] | 18.4 ± 6.9 nM
OC[C@H]1O[C@H](c2ccc3cc(-c4cc(Cl)cc(Cl)c4)ccc3c2)[C@@H](O)[C@@H](O)[C@@H]1O [Compound 155, (2R,3S,4R,5S,6R)-2-[6-(3,5-dichlorophenyl)-2-naphthyl]-6-(hydroxymethyl)tetrahydropyran-3,4,5-triol] | 71.7 ± 2 nM
